According to US20060069132A1, “Azolecarboxamide herbicides” (priority 2004, published 2006):

Assays:
Test in all cases: Test C postemergence herbicide test
chickweed = format: in vivo, Stellaria media; details: for Chickweed plant response rating: 500 g ai/ha
Description: At the same time, plants selected from these crop and weed species and also winter barley (Hordeum vulgare L.), blackgrass (Alopecurus myosuroides Huds.), canarygrass (Phalaris minor Retz.), chickweed (Stellaria media (L.) Vill.), downy bromegrass (Bromus tectorum L.), green foxtail (Setaria viridis (L.) Beauv.), Italian ryegrass (Lolium multiflorum Lam.), wheat (Triticum aestivum L.), wild oat (Avenafatua L.) and windgrass (Apera spica-venti (L.) Beauv.) were treated with postemergence applications of some of the test chemicals formulated in the same manner. Plants ranged in height from 2 to 18 cm (1- to 4-leaf stage) for postemergence treatments. Plant species in the flooded paddy test consisted of rice (Oryza sativa), smallflower umbrella sedge (Cyperus difformis L.), ducksalad (Heteranthera limosa (Sw.) Willd.) and barnyardgrass (Echinochloa crus-galli (L.) Beauv.) grown to the 2-leaf stage for testing. Treated plants and controls were maintained in a greenhouse for 12 to 14 days, after which time all species were compared to controls and visually evaluated. Plant response ratings, summarized in Table C, are based on a scale of 0 to 100 where 0 is no effect and 100 is complete control. A dash (-) response means no test result.

windgrass = format: in vivo, Apera spica-venti
Summary of the method: (§1)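 After a postemergence application at 1 to 4 leaves (plants 2–18 cm high), or at 2 leaves for barnyardgrass in flooded paddy, plants stayed in the greenhouse for 12 to 14 days. Damage was then judged visually relative to control plants, with 100 indicating complete control.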

downy bromegrass = format: in vivo, Bromus tectorum
Summary of the method: as §1

wheat = format: in vivo, Triticum aestivum
Summary of the method: as §1

canarygrass = format: in vivo, Phalaris minor
Summary of the method: as §1

green foxtail = format: in vivo, Setaria viridis
Summary of the method: as §1

winter barley = format: in vivo, Hordeum vulgare; details: for Barley, Winter plant response rating: 500 g ai/ha
Summary of the method: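 Visual rating, 0 (no effect) to 100 (complete control), vs. controls at 12–14 d in greenhouse. Postemergence: 1–4-leaf plants, 2–18 cm. Paddy: flooded, barnyardgrass at 2-leaf stage.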

Italian ryegrass = format: in vivo, Lolium multiflorum
Summary of the method: as §1

wild oat = format: in vivo, Avenafatua
Summary of the method: as §1

blackgrass = format: in vivo, Alopecurus myosuroides; details: for Blackgrass plant response rating: 500 g ai/ha
Summary of the method: as §1

[1] = Postemergence, 250 g ai/ha, scale 0 to 100, 0 no effect, 100 complete control
[2] = postemergence, 125 g ai/ha, scale 0 to 100
[3] = postemergence, 62 g ai/ha, scale 0 to 100
[4] = postemergence, 31 g ai/ha, scale 0 to 100
[5] = Postemergence, 500 g ai/ha, scale 0 to 100
[6] = postemergence, 125 g ai/ha, scale 0 to 100 (0 no effect, 100 complete control)
[7] = postemergence, 62 g ai/ha, scale 0 to 100 (0 no effect, 100 complete control)
[8] = Postemergence, 500 g ai/ha, scale 0 to 100, 0 no effect, 100 complete control

| Compound | Plant response rating, Windgrass (windgrass; [2]) | Plant response rating, Windgrass (windgrass; [3]) | Plant response rating, Bromegrass, Downy (downy bromegrass; [1]) | Plant response rating, Bromegrass, Downy (downy bromegrass; [3]) | Plant response rating, Wheat (wheat; [2]) | Plant response rating, Wheat (wheat; [3]) | Plant response rating, Canarygrass (canarygrass; [1]) | Plant response rating, Canarygrass (canarygrass; [2]) | Plant response rating, Canarygrass (canarygrass; [3]) | Plant response rating, Foxtail, Green (green foxtail; [1]) | Plant response rating, Foxtail, Green (green foxtail; [2]) | Plant response rating, Foxtail, Green (green foxtail; [3]) | Plant response rating, Barley, Winter (winter barley; [1]) | Plant response rating, Barley, Winter (winter barley; [6]) | Plant response rating, Barley, Winter (winter barley; [7]) | Plant response rating, Ryegrass, Italian (Italian ryegrass; [2]) | Plant response rating, Ryegrass, Italian (Italian ryegrass; [3]) | Plant response rating, Oat, Wild (wild oat; [2]) | Plant response rating, Oat, Wild (wild oat; [3]) | Plant response rating, Blackgrass (blackgrass; [1]) | further results |
| --- | --- | --- | --- | --- | --- | --- | --- | --- | --- | --- | --- | --- | --- | --- | --- | --- | --- | --- | --- | --- | --- |
| C#CCOC(=O)c1cccc(NC(=O)c2cc(C(C)(C)C)nn2CC)c1 [Compound 84] | – | – | – | – | – | – | – | – | – | – | – | – | – | – | – | – | – | – | – | – | Chickweed plant response rating (chickweed; Postemergence, scale 0 to 100): 70; Plant response rating, Chickweed (chickweed; [1]): 70; Plant response rating, Chickweed (chickweed; [2]): 50; Plant response rating, Chickweed (chickweed; [3]): 0 |
| CCn1nc(C(C)(C)C)cc1C(=O)Nc1ccc(F)c(C(=O)NCCF)c1 [Compound 60] | – | – | – | – | – | – | – | – | – | – | – | – | – | – | – | – | – | – | – | – | Plant response rating, Chickweed (chickweed; [1]): 10; Plant response rating, Chickweed (chickweed; [2]): 10; Plant response rating, Chickweed (chickweed; [4]): 5; Plant response rating, Chickweed (chickweed; [3]): 5 |
| CC(=NO)c1cccc(NC(=O)c2cc(C(C)(C)C)nn2CC(F)(F)F)c1 [Compound 112] | – | – | – | – | – | – | – | – | – | – | – | – | – | – | – | – | – | – | – | – | Chickweed plant response rating (chickweed; Postemergence, scale 0 to 100): 100; Plant response rating, Chickweed (chickweed; [1]): 100; Plant response rating, Chickweed (chickweed; [2]): 10; Plant response rating, Chickweed (chickweed; [3]): 0 |
| CCn1nc(C(C)(C)C)cc1C(=O)Nc1cccc(OC(F)(F)C(F)F)c1 [Compound 333] | 25 | 20 | 45 | 40 | 50 | 40 | 40 | 35 | 35 | 50 | 40 | 30 | 55 | 45 | 40 | 35 | 35 | 60 | 50 | 50 | Windgrass plant response rating (windgrass; [5]): 80; Plant response rating, Windgrass (windgrass; [1]): 50; Bromegrass, Downy plant response rating (downy bromegrass; [5]): 45; Wheat plant response rating (wheat; [5]): 55; Plant response rating, Wheat (wheat; [1]): 50; Canarygrass plant response rating (canarygrass; [5]): 45; Foxtail, Green plant response rating (green foxtail; [5]): 65; Ryegrass, Italian plant response rating (Italian ryegrass; [5]): 55; Plant response rating, Ryegrass, Italian (Italian ryegrass; [1]): 50; Oat, Wild plant response rating (wild oat; [5]): 55; Plant response rating, Oat, Wild (wild oat; [1]): 60; Blackgrass plant response rating (blackgrass; Postemergence, scale 0 to 100): 55; Plant response rating, Blackgrass (blackgrass; [2]): 40; Plant response rating, Blackgrass (blackgrass; [3]): 30 |
| CCn1nc(C2(C)CC2)cc1C(=O)Nc1cccc(C(=O)N2CC=CC2)c1 [Compound 304] | 35 | 35 | 40 | 40 | 40 | 35 | 45 | 40 | 40 | 50 | 45 | 40 | 35 | 35 | 35 | 50 | 50 | 60 | 60 | 70 | Windgrass plant response rating (windgrass; [5]): 45; Plant response rating, Windgrass (windgrass; [1]): 40; Bromegrass, Downy plant response rating (downy bromegrass; [5]): 50; Plant response rating, Bromegrass, Downy (downy bromegrass; [2]): 40; Wheat plant response rating (wheat; [5]): 40; Plant response rating, Wheat (wheat; [1]): 40; Canarygrass plant response rating (canarygrass; [5]): 45; Foxtail, Green plant response rating (green foxtail; [5]): 60; Barley, Winter plant response rating (winter barley; Postemergence, scale 0 to 100): 45; Ryegrass, Italian plant response rating (Italian ryegrass; [5]): 50; Plant response rating, Ryegrass, Italian (Italian ryegrass; [1]): 50; Oat, Wild plant response rating (wild oat; [5]): 70; Plant response rating, Oat, Wild (wild oat; [1]): 60; Blackgrass plant response rating (blackgrass; Postemergence, scale 0 to 100): 95; Plant response rating, Blackgrass (blackgrass; [2]): 50; Plant response rating, Blackgrass (blackgrass; [3]): 60 |
| CCOC(=O)c1ccc(F)c(NC(=O)c2cc(C3(C)CC3)nn2CC)c1 [Compound 296] | 50 | 45 | 45 | 35 | 35 | 35 | 55 | 40 | 30 | 60 | 50 | 40 | 45 | 40 | 35 | 45 | 35 | 60 | 35 | 75 | Plant response rating, Windgrass (windgrass; [1]): 65; Plant response rating, Bromegrass, Downy (downy bromegrass; [2]): 35; Plant response rating, Bromegrass, Downy (downy bromegrass; [4]): 25; Plant response rating, Wheat (wheat; [1]): 40; Plant response rating, Canarygrass (canarygrass; [4]): 30; Plant response rating, Barley, Winter (winter barley; [4]): 30; Plant response rating, Ryegrass, Italian (Italian ryegrass; [1]): 65; Plant response rating, Oat, Wild (wild oat; [1]): 60; Plant response rating, Blackgrass (blackgrass; [2]): 65; Plant response rating, Blackgrass (blackgrass; [4]): 45; Plant response rating, Blackgrass (blackgrass; [3]): 60 |
| CCNC(=O)c1cccc(NC(=O)c2nn(C(C)(C)CC)nc2CC)c1 [Compound 376] | 40 | 40 | 40 | 35 | 20 | 20 | 55 | 50 | 45 | 60 | 60 | 40 | 30 | 20 | 20 | 55 | 45 | 45 | 40 | 50 | Plant response rating, Windgrass (windgrass; [8]): 65; Plant response rating, Bromegrass, Downy (downy bromegrass; [8]): 50; Plant response rating, Bromegrass, Downy (downy bromegrass; [2]): 35; Plant response rating, Wheat (wheat; [8]): 25; Plant response rating, Canarygrass (canarygrass; [8]): 65; Plant response rating, Foxtail, Green (green foxtail; [8]): 65; Barley, Winter plant response rating (winter barley; Postemergence, scale 0 to 100): 40; Plant response rating, Ryegrass, Italian (Italian ryegrass; [8]): 65; Plant response rating, Oat, Wild (wild oat; [8]): 60; Blackgrass plant response rating (blackgrass; Postemergence, scale 0 to 100): 65; Plant response rating, Blackgrass (blackgrass; [2]): 40; Plant response rating, Blackgrass (blackgrass; [3]): 40 |
